# Measurements published in patent publication US20230047788A1, “COMPOSITIONS COMPRISING 5-CHOLESTEN-3, 25-DIOL, 3-SULFATE (25HC3S) OR PHARMACEUTICALLY ACCEPTABLE SALT THEREOF AND AT LEAST ONE CYCLIC OLIGOSACCHARIDE” (Virginia Commonwealth University, priority 2016, published 2023).
# How the values were obtained:
# [1] = Stability testing for 25HC3S sodium salt for injection, 30 mg/mL after constitution; format: physicochemical; conditions: for Degree of Coloration of Liquids: BY = brown-yellow
# Description: Sterile water for injection, USP (6.14 kg) was added into a 10L stainless steel vessel. […] HPbCD, NF (1851.85 g) was added in small portions over 15 minutes with slow stirring into the beaker. The stirring was increased to 250-350 rpm for an additional minimum 30 minutes to form a clear solution. The solution was filtered through a 0.22 micron filter. Filtered vehicle (7 mL) was filled into 10 mL glass vials, which were sealed with 20 mm stoppers, and crimp sealed. The vehicle vials were sterilized with gamma irradiation at approximately 28-32 kGy.
# 25HC3S sodium salt was micronized by passing through a Fluid Energy Model 00 Jet-O-Mizer Jet Mill. Micronized drug substance (186 mg) was added into a 10 mL glass vial, sealed with 20 mm stoppers, and crimp sealed. The 25HC3S powder vials were sterilized with gamma irradiation at approximately 28-32 kGy
# Sterile vehicle (6.0 mL) comprised of 250 mg/mL HPbCD and 10 mM phosphate buffer was added to a vial of 25HC3S micronized powder. The mixture was shaken for 15 minutes to prepare a solution resulting in a 25HC3S sodium salt concentration of 30 mg/mL (allowing for 3% dilution upon the dissolution of drug).
# Stability data for 6 months at 2-8° C. to 40° C./75% RH for 25HC3S for injection, 30 mg/mL after constitution, are listed in Table 5. This lot of 25HC3S powder, and the vehicle used to constitute it, were gamma sterilized at approximately 28-32 kGy. The data supports a 12 month retest date when stored at 2-8° C.
# [2] = Solubility of 25HC3S in 10 mM sodium phosphate buffer pH 7.6 with HPbCD at 5, 15 and 25°C; format: physicochemical; conditions: 25°C/60% RH, supernatant
smiles,measurement,setting,value
"C[C@H](CCCC(C)(C)O)[C@H]1CC[C@H]2[C@@H]3CC=C4C[C@@H](OS(=O)(=O)[O-])CC[C@]4(C)[C@H]3CC[C@]12C.[Na+] [25HC3S, 5-cholesten-3, 25-diol, 3-sulfate]",% Individual Unspecified Degradant RRT = 0.60,"[1]; 2-8°C, 0 months",0.2%
same,% Individual Unspecified Degradant RRT = 0.64,"[1]; 2-8°C, 0 months",0.4%
same,% Individual Unspecified Degradant RRT = 2.74,"[1]; 2-8°C, 0 months",0.4%
same,% Individual Unspecified Degradant RRT = 3.77,"[1]; 2-8°C, 0 months",0.3%
same,% Total Degradation Products,"[1]; 2-8°C, 0 months",2.5%
same,% Water Content,"[1]; 2-8°C, 0 months",6.23%
same,Appearance,"[1]; 2-8°C, 0 months",White powder
same,Assay (label strength of 30 mg/mL),"[1]; 2-8°C, 0 months",Mean: 98.7%
same,Osmolality,"[1]; 2-8°C, 0 months",321 mmol/kg
same,pH,"[1]; 2-8°C, 0 months",6.62
same,Degree of Coloration of Liquids,"[1]; 2-8°C, 0 months",BY6
same,% Individual Unspecified Degradant RRT = 0.60,"[1]; 2-8°C, 3 months",0.2%
same,% Individual Unspecified Degradant RRT = 0.64,"[1]; 2-8°C, 3 months",0.4%
same,% Individual Unspecified Degradant RRT = 2.74,"[1]; 2-8°C, 3 months",0.4%
same,% Individual Unspecified Degradant RRT = 3.77,"[1]; 2-8°C, 3 months",0.3%
same,% Total Degradation Products,"[1]; 2-8°C, 3 months",2.8%
same,% Water Content,"[1]; 2-8°C, 3 months",5.62%
same,Assay (label strength of 30 mg/mL),"[1]; 2-8°C, 3 months",96.7%
same,Osmolality,"[1]; 2-8°C, 3 months",322 mmol/kg
same,pH,"[1]; 2-8°C, 3 months",5.82
same,% Individual Unspecified Degradant RRT = 0.60,"[1]; 2-8°C, 6 months",0.3%
same,% Individual Unspecified Degradant RRT = 0.64,"[1]; 2-8°C, 6 months",0.4%
same,% Individual Unspecified Degradant RRT = 2.74,"[1]; 2-8°C, 6 months",0.4%
same,% Individual Unspecified Degradant RRT = 3.77,"[1]; 2-8°C, 6 months",0.3%
same,% Total Degradation Products,"[1]; 2-8°C, 6 months",3.0%
same,% Water Content,"[1]; 2-8°C, 6 months",6.13%
same,Assay (label strength of 30 mg/mL),"[1]; 2-8°C, 6 months",100.0%
same,Osmolality,"[1]; 2-8°C, 6 months",323 mmol/kg
same,pH,"[1]; 2-8°C, 6 months",5.34
same,Degree of Coloration of Liquids,"[1]; 2-8°C, 6 months",BY6
same,% Individual Unspecified Degradant RRT = 0.60,"[1]; 25°C/60% RH, 1 month",0.3%
same,% Individual Unspecified Degradant RRT = 0.64,"[1]; 25°C/60% RH, 1 month",0.4%
same,% Individual Unspecified Degradant RRT = 2.74,"[1]; 25°C/60% RH, 1 month",0.4%
same,% Individual Unspecified Degradant RRT = 3.77,"[1]; 25°C/60% RH, 1 month",0.3%
same,% Total Degradation Products,"[1]; 25°C/60% RH, 1 month",2.9%
same,% Water Content,"[1]; 25°C/60% RH, 1 month",5.29%
same,Assay (label strength of 30 mg/mL),"[1]; 25°C/60% RH, 1 month",98.3%
same,Osmolality,"[1]; 25°C/60% RH, 1 month",330 mmol/kg
same,pH,"[1]; 25°C/60% RH, 1 month",5.18
same,% Individual Unspecified Degradant RRT = 0.60,"[1]; 25°C/60% RH, 3 months",0.3%
same,% Individual Unspecified Degradant RRT = 0.64,"[1]; 25°C/60% RH, 3 months",0.4%
same,% Individual Unspecified Degradant RRT = 2.74,"[1]; 25°C/60% RH, 3 months",0.4%
same,% Individual Unspecified Degradant RRT = 3.77,"[1]; 25°C/60% RH, 3 months",0.3%
same,% Total Degradation Products,"[1]; 25°C/60% RH, 3 months",2.9%
same,% Water Content,"[1]; 25°C/60% RH, 3 months",5.40%
same,Assay (label strength of 30 mg/mL),"[1]; 25°C/60% RH, 3 months",96.0%
same,Osmolality,"[1]; 25°C/60% RH, 3 months",322 mmol/kg
same,Degree of Coloration of Liquids,"[1]; 25°C/60% RH, 3 months",BY5
same,% Individual Unspecified Degradant RRT = 0.60,"[1]; 25°C/60% RH, 6 months",0.4%
same,% Individual Unspecified Degradant RRT = 0.64,"[1]; 25°C/60% RH, 6 months",0.4%
same,% Individual Unspecified Degradant RRT = 2.74,"[1]; 25°C/60% RH, 6 months",0.4%
same,% Individual Unspecified Degradant RRT = 3.77,"[1]; 25°C/60% RH, 6 months",0.3%
same,% Total Degradation Products,"[1]; 25°C/60% RH, 6 months",3.0%
same,% Water Content,"[1]; 25°C/60% RH, 6 months",5.65%
same,Assay (label strength of 30 mg/mL),"[1]; 25°C/60% RH, 6 months",96.2%
same,Osmolality,"[1]; 25°C/60% RH, 6 months",319 mmol/kg
same,Degree of Coloration of Liquids,"[1]; 25°C/60% RH, 6 months",BY5
same,% Individual Unspecified Degradant RRT = 0.60,"[1]; 40°C/75% RH, 1 month",0.3%
same,% Individual Unspecified Degradant RRT = 0.64,"[1]; 40°C/75% RH, 1 month",0.4%
same,% Individual Unspecified Degradant RRT = 2.74,"[1]; 40°C/75% RH, 1 month",0.4%
same,% Individual Unspecified Degradant RRT = 3.77,"[1]; 40°C/75% RH, 1 month",0.3%
same,% Total Degradation Products,"[1]; 40°C/75% RH, 1 month",2.9%
same,% Water Content,"[1]; 40°C/75% RH, 1 month",5.03%
same,Assay (label strength of 30 mg/mL),"[1]; 40°C/75% RH, 1 month",95.8%
same,Osmolality,"[1]; 40°C/75% RH, 1 month",330 mmol/kg
same,% Individual Unspecified Degradant RRT = 0.60,"[1]; 40°C/75% RH, 3 months",0.3%
same,% Individual Unspecified Degradant RRT = 0.64,"[1]; 40°C/75% RH, 3 months",0.4%
same,% Individual Unspecified Degradant RRT = 2.74,"[1]; 40°C/75% RH, 3 months",0.5%
same,% Individual Unspecified Degradant RRT = 3.77,"[1]; 40°C/75% RH, 3 months",0.4%
same,% Total Degradation Products,"[1]; 40°C/75% RH, 3 months",3.3%
same,% Water Content,"[1]; 40°C/75% RH, 3 months",5.33%
same,Assay (label strength of 30 mg/mL),"[1]; 40°C/75% RH, 3 months",96.2%
same,Osmolality,"[1]; 40°C/75% RH, 3 months",327 mmol/kg
same,% Individual Unspecified Degradant RRT = 0.60,"[1]; 40°C/75% RH, 6 months",0.4%
same,% Individual Unspecified Degradant RRT = 0.64,"[1]; 40°C/75% RH, 6 months",0.5%
same,% Individual Unspecified Degradant RRT = 2.74,"[1]; 40°C/75% RH, 6 months",0.4%
same,% Individual Unspecified Degradant RRT = 3.77,"[1]; 40°C/75% RH, 6 months",0.3%
same,% Total Degradation Products,"[1]; 40°C/75% RH, 6 months",2.8%
same,% Water Content,"[1]; 40°C/75% RH, 6 months",6.34%
same,Assay (label strength of 30 mg/mL),"[1]; 40°C/75% RH, 6 months",97.1%
same,Osmolality,"[1]; 40°C/75% RH, 6 months",324 mmol/kg
same,retest date supported by the data,[1]; stored at 2-8°C,12 month
same,pH of Filtrate Day 3,[2]; HPbCD 0 mg/mL,7.532
same,pH of Filtrate Day 3,[2]; HPbCD 250 mg/mL,7.842
